Reference: US10375956B2, “Herbicidally active 2-(substituted-phenyl)-cyclopentane-1,3-dione compounds and derivatives thereof” (Syngenta Limited, priority 2013, dated 2019)

Legend:
Type in all cases: in vivo
[1] = tested on: Alopecurus myosuroides (ALOMY); assay: Test 1 glasshouse assay, pre-emergence herbicidal activity; settings: 312 h, visual evaluation after 13 days, read-out: Percentage phytotoxicity ALOMY
Procedure: (§1) Seeds of a variety of test species are sown in standard soil in pots. After cultivation for one day (pre-emergence) or after 8 days cultivation (post-emergence) under controlled conditions in a glasshouse (at 24/16° C., day/night; 14 hours light; 65% humidity), the plants are sprayed with an aqueous spray solution derived from the formulation of the “technical” (i.e. unformulated) active ingredient in acetone/water (50:50) solution containing 0.5% Tween 20 (polyoxyethylene sorbitan monolaurate, CAS Registry Number 9005-64-5). The test plants are then grown on under controlled conditions in a glasshouse (at 24/16° C., day/night; 14 hours light; 65% humidity) and watered twice daily. After 13 days for pre- or post-emergence, the test is evaluated visually, and an assessed percentage phytotoxicity score is given for each herbicidal application on each plant species (where 100%=total damage to plant; 0%=no damage to plant).
(§2) Test plants include the following: Abutilon theophrasti (ABUTH), Amaranthus retroflexus (AMARE): these are dicotyledonous (broadleaved) weeds. Setaria faberi (SETFA), Alopecurus myosuroides (ALOMY), Echinochloa crus-galli (ECHCG): these are grassy monocotyledonous weeds. Also: Zea mays (ZEAMX, corn/maize), which can be a grassy weed (“volunteer” corn) in some circumstances.

[2] = tested on: Echinochloa crus-galli (ECHCG); assay: as above; settings: 312 h, visual evaluation after 13 days, read-out: Percentage phytotoxicity ECHCG
Procedure: as §1, §2

[3] = tested on: Alopecurus myosuroides (ALOMY); assay: Test 1 glasshouse assay, post-emergence herbicidal activity; settings: 312 h, after 13 days, read-out: Percentage phytotoxicity ALOMY
Procedure: as §1
(§3) Test plants include the following: Abutilon theophrasti (ABUTH) and Amaranthus retroflexus (AMARE); these are all dicotyledonous (broadleaved) weeds. Setaria faberi (SETFA), Alopecurus myosuroides (ALOMY), and Echinochloa crus-galli (ECHCG); these are all grassy monocotyledonous weeds. Also: Zea mays (ZEAMX, corn/maize), which can be a grassy weed (“volunteer” corn) in some circumstances.
(§4) Lolium perenne (LOLPE), Alopecurus myosuroides (ALOMY), Echinochloa crus-galli (ECHCG), and Avena fatua (AVEFA); these are all grassy monocotyledonous weeds. Cool climate crop plant: Triticum aestivum (TRZAW, winter wheat).

[4] = tested on: Echinochloa crus-galli (ECHCG); assay: as above; settings: 312 h, after 13 days, read-out: Percentage phytotoxicity ECHCG
Procedure: as §1, §3, §4

Avena fatua (AVEFA) = assay: as above; settings: 312 h, post-emergence (Example 1B Table 2), after 13 days, read-out: Percentage phytotoxicity AVEFA
Procedure: as §1, §4

Lolium perenne (LOLPE) = assay: as above; settings: 312 h, post-emergence (Example 1B Table 2), after 13 days, read-out: Percentage phytotoxicity LOLPE
Procedure: as §1, §4

[5] = tested on: Triticum aestivum (TRZAW, winter wheat); assay: as above; settings: 312 h, post-emergence (Example 1B Table 2), after 13 days, crop plant, read-out: Percentage phytotoxicity TRZAW
Procedure: as §1, §4

[6] = tested on: Abutilon theophrasti (ABUTH); assay: Test 1 glasshouse assay, pre-emergence herbicidal activity; settings: 312 h, visual evaluation after 13 days, read-out: Percentage phytotoxicity ABUTH
Procedure: as §1, §2

[7] = tested on: Amaranthus retroflexus (AMARE); assay: as above; settings: 312 h, visual evaluation after 13 days, read-out: Percentage phytotoxicity AMARE
Procedure: as §1, §2

Setaria faberi (SETFA) [8] = assay: as above; settings: 312 h, visual evaluation after 13 days, read-out: Percentage phytotoxicity SETFA
Procedure: as §1, §2

[9] = tested on: Zea mays (ZEAMX, corn/maize); assay: as above; settings: 312 h, visual evaluation after 13 days, read-out: Percentage phytotoxicity ZEAMX
Procedure: as §1, §2

[10] = tested on: Abutilon theophrasti (ABUTH); assay: Test 1 glasshouse assay, post-emergence herbicidal activity; settings: 312 h, post-emergence (Example 1B Table 1), after 13 days, read-out: Percentage phytotoxicity ABUTH
Procedure: as §1, §3

[11] = tested on: Amaranthus retroflexus (AMARE); assay: as above; settings: 312 h, post-emergence (Example 1B Table 1), after 13 days, read-out: Percentage phytotoxicity AMARE
Procedure: as §1, §3

Setaria faberi (SETFA) [12] = assay: as above; settings: 312 h, post-emergence (Example 1B Table 1), after 13 days, read-out: Percentage phytotoxicity SETFA
Procedure: as §1, §3

[13] = tested on: Zea mays (ZEAMX, corn/maize); assay: as above; settings: 312 h, post-emergence (Example 1B Table 1), after 13 days, read-out: Percentage phytotoxicity ZEAMX
Procedure: as §1, §3

[14] = post-emergence (Example 1B Table 2)
[15] = post-emergence (Example 1B Table 1)
[16] = post-emergence (Example 1B Table 1), 8 g/ha

SMILES: C#CCC1CC(=O)C(c2c(Br)cc(C)cc2Br)C1=O (centres unmarked) [Compound A26]
- pest or weed control at 250 g/ha [1]: 30%
- pest or weed control at 250 g/ha [2]: 80%
- pest or weed control at 250 g/ha [3, 14]: 60%
- pest or weed control at 250 g/ha [4, 14]: 100%
- pest or weed control at 250 g/ha (Avena fatua (AVEFA)): 70%
- pest or weed control at 250 g/ha (Lolium perenne (LOLPE)): 100%
- plant injury at 250 g/ha [5]: 10%

SMILES: C#Cc1cc(C)c(C2C(=O)CC(CC#CC)C2=O)c(C)c1 (centres unmarked) [Compound A28]
- pest or weed control at 250 g/ha [1]: 90%
- pest or weed control at 250 g/ha [2]: 100%
- pest or weed control at 62.5 g/ha [3, 14]: 70%
- pest or weed control at 250 g/ha [3, 14]: 100%
- pest or weed control at 62.5 g/ha [4, 14]: 90%
- pest or weed control at 250 g/ha [4, 14]: 100%
- pest or weed control at 62.5 g/ha (Avena fatua (AVEFA)): 80%
- pest or weed control at 250 g/ha (Avena fatua (AVEFA)): 90%
- pest or weed control at 62.5 g/ha (Lolium perenne (LOLPE)): 80%
- pest or weed control at 250 g/ha (Lolium perenne (LOLPE)): 90%
- plant injury at 62.5 g/ha [5]: 30%
- plant injury at 250 g/ha [5]: 80%

SMILES: C#CCC1CC(=O)C(c2cc(-c3ccc(Cl)cc3)ccc2C)C1=O (centres unmarked) [Compound A16]
- pest or weed control at 250 g/ha [6]: 40%
- pest or weed control at 250 g/ha [1]: 90%
- pest or weed control at 250 g/ha [7]: 40%
- pest or weed control at 250 g/ha [2]: 90%
- pest or weed control at 250 g/ha (Setaria faberi (SETFA) [8]): 90%
- pest or weed control at 250 g/ha [9]: 80%
- pest or weed control at 30 g/ha [10]: 40%
- pest or weed control at 250 g/ha [10]: 40%
- pest or weed control at 30 g/ha [11]: 0%
- pest or weed control at 250 g/ha [11]: 60%
- pest or weed control at 30 g/ha (Setaria faberi (SETFA) [12]): 80%
- pest or weed control at 250 g/ha (Setaria faberi (SETFA) [12]): 90%
- pest or weed control at 30 g/ha [13]: 80%
- pest or weed control at 250 g/ha [13]: 60%
- pest or weed control at 30 g/ha [3, 15]: 70%
- pest or weed control at 250 g/ha [3, 15]: 90%
- pest or weed control at 30 g/ha [4, 15]: 40%
- pest or weed control at 250 g/ha [4, 15]: 100%

SMILES: C#CCC1CC(=O)C(c2c(C)cc(C#C)cc2C)C1=O (centres unmarked) [Compound A27]
- pest or weed control at 250 g/ha [1]: 100%
- pest or weed control at 250 g/ha [2]: 100%
- pest or weed control at 62.5 g/ha [3, 14]: 90%
- pest or weed control at 250 g/ha [3, 14]: 100%
- pest or weed control at 62.5 g/ha [4, 14]: 90%
- pest or weed control at 250 g/ha [4, 14]: 100%
- pest or weed control at 62.5 g/ha (Avena fatua (AVEFA)): 90%
- pest or weed control at 250 g/ha (Avena fatua (AVEFA)): 100%
- pest or weed control at 62.5 g/ha (Lolium perenne (LOLPE)): 80%
- pest or weed control at 250 g/ha (Lolium perenne (LOLPE)): 100%
- plant injury at 62.5 g/ha [5]: 80%
- plant injury at 250 g/ha [5]: 90%

SMILES: CC#CCC1CC(=O)C(c2c(C)cc(C)cc2C)C1=O (centres unmarked) [Compound A24]
- pest or weed control at 250 g/ha [1]: 100%
- pest or weed control at 250 g/ha [2]: 100%
- pest or weed control at 62.5 g/ha [3, 14]: 60%
- pest or weed control at 250 g/ha [3, 14]: 80%
- pest or weed control at 62.5 g/ha [4, 14]: 70%
- pest or weed control at 250 g/ha [4, 14]: 80%
- pest or weed control at 62.5 g/ha (Avena fatua (AVEFA)): 60%
- pest or weed control at 250 g/ha (Avena fatua (AVEFA)): 50%
- pest or weed control at 62.5 g/ha (Lolium perenne (LOLPE)): 70%
- pest or weed control at 250 g/ha (Lolium perenne (LOLPE)): 80%
- plant injury at 62.5 g/ha [5]: 0%
- plant injury at 250 g/ha [5]: 0%

SMILES: C#CCC1CC(=O)C(c2c(C)cc(-n3cc(Cl)cn3)cc2C)C1=O (centres unmarked) [Compound A9]
- pest or weed control at 250 g/ha [6]: 40%
- pest or weed control at 250 g/ha [1]: 70%
- pest or weed control at 250 g/ha [7]: 70%
- pest or weed control at 250 g/ha [2]: 100%
- pest or weed control at 250 g/ha (Setaria faberi (SETFA) [8]): 100%
- pest or weed control at 250 g/ha [9]: 80%
- pest or weed control at 250 g/ha [10]: 80%
- pest or weed control at 250 g/ha [11]: 80%
- pest or weed control at 250 g/ha (Setaria faberi (SETFA) [12]): 100%
- pest or weed control at 250 g/ha [13]: 100%
- pest or weed control at 250 g/ha [3, 15]: 100%
- pest or weed control at 250 g/ha [4, 15]: 100%

SMILES: C#CCC1CC(=O)C(c2ccc(-c3ccc(Cl)cc3)cc2C)C1=O (centres unmarked) [Compound A43]
- pest or weed control at 250 g/ha [11]: 0%
- pest or weed control at 250 g/ha (Setaria faberi (SETFA) [12]): 70%
- pest or weed control at 250 g/ha [3, 15]: 20%
- pest or weed control at 250 g/ha [4, 15]: 20%

SMILES: C#CCC1CC(=O)C(c2c(F)cc(-c3ccc(F)cc3)cc2Cl)C1=O (centres unmarked) [Compound A4]
- pest or weed control at 250 g/ha [6]: 0%
- pest or weed control at 250 g/ha [1]: 90%
- pest or weed control at 250 g/ha [7]: 80%
- pest or weed control at 250 g/ha [2]: 100%
- pest or weed control at 250 g/ha (Setaria faberi (SETFA) [8]): 100%
- pest or weed control at 250 g/ha [9]: 100%
- pest or weed control at 30 g/ha [10]: 40%
- pest or weed control at 250 g/ha [10]: 80%
- pest or weed control at 30 g/ha [11]: 60%
- pest or weed control at 250 g/ha [11]: 80%
- pest or weed control at 30 g/ha (Setaria faberi (SETFA) [12]): 100%
- pest or weed control at 250 g/ha (Setaria faberi (SETFA) [12]): 100%
- pest or weed control at 30 g/ha [13]: 100%
- pest or weed control at 250 g/ha [13]: 100%
- pest or weed control at 30 g/ha [3, 15]: 70%
- pest or weed control at 250 g/ha [3, 15]: 100%
- pest or weed control at 30 g/ha [4, 15]: 90%
- pest or weed control at 250 g/ha [4, 15]: 100%

SMILES: C#CCC1C(=O)C(c2cc(-c3ccc(Cl)cc3)ccc2C)C(=O)C1CC#C (centres unmarked) [Compound A44]
- pest or weed control at 8 g/ha ([10]; 8 g/ha): 0%
- pest or weed control at 250 g/ha [10]: 10%
- pest or weed control at 8 g/ha ([11]; 8 g/ha): 0%
- pest or weed control at 250 g/ha [11]: 0%
- pest or weed control at 8 g/ha (Setaria faberi (SETFA) [12]; 8 g/ha): 0%
- pest or weed control at 250 g/ha (Setaria faberi (SETFA) [12]): 0%
- pest or weed control at 8 g/ha ([13]; 8 g/ha): 30%
- pest or weed control at 250 g/ha [13]: 20%
- pest or weed control at 8 g/ha [3, 16]: 0%
- pest or weed control at 250 g/ha [3, 15]: 0%
- pest or weed control at 8 g/ha [4, 16]: 0%
- pest or weed control at 250 g/ha [4, 15]: 0%

SMILES: C#CCC1CC(=O)C(c2c(Cl)cccc2Cl)C1=O (centres unmarked) [Compound A29]
- pest or weed control at 250 g/ha [1]: 70%
- pest or weed control at 250 g/ha [2]: 90%
- pest or weed control at 62.5 g/ha [3, 14]: 60%
- pest or weed control at 250 g/ha [3, 14]: 80%
- pest or weed control at 62.5 g/ha [4, 14]: 90%
- pest or weed control at 250 g/ha [4, 14]: 100%
- pest or weed control at 62.5 g/ha (Avena fatua (AVEFA)): 0%
- pest or weed control at 250 g/ha (Avena fatua (AVEFA)): 60%
- pest or weed control at 62.5 g/ha (Lolium perenne (LOLPE)): 60%
- pest or weed control at 250 g/ha (Lolium perenne (LOLPE)): 80%
- plant injury at 62.5 g/ha [5]: 60%
- plant injury at 250 g/ha [5]: 80%
